The subject of assay [1] is Interleukin 1beta (IL-1beta), Interleukin 6 (IL6) and TNF-alpha. The experiment in a line: LPS-stimulated cytokine production in whole human blood. It counts as cell-based. The conditions noted are these: 10 ng/ml LPS; for inhibition at 0.6 µM: 600 nM, 24 h, read-out: Inhibition of inflammatory cytokine production. The procedure: BET inhibitors were added (from 10 mM DMSO solutions) to whole human blood (anti-coagulated with heparin) during incubation for 24 h at 37° C. in the presence of 10 ng/ml Lipopolysaccharide (LPS). Final DMSO concentration was below 0.01%. Cytokines production with 0.01% DMSO alone in the absence of LPS were below detection level.

In a further assay the test system is collagen1A1. The experiment in a line: Anti-fibrotic effects: collagen1A1 production by LX2 cells treated with TGFbeta. It counts as cell-based. The conditions noted are these: 500 nM. An excerpt: (§1) Methods of culturing LX2 cells and measurements of Collagen1A1 and alphaActin1 mRNA contents are provided in Ding et al, Proc Natl Acad Sci USA 2015, 112:15713-15718

The next assay has as its system alphaActin1. The experiment in a line: Anti-fibrotic effects: alphaActin1 production by LX2 cells treated with TGFbeta. The class given is cell-based. The conditions noted are these: 500 nM.
Text: as §1

The target of another assay is BRD4 (Homo sapiens, UniProt O60885). The experiment in a line: AlphaScreen assay, Bromodomain 4 inhibition. The class given is binding. The procedure: AlphaScreen assays were performed as described by Philpott et al Mol Biosyst. […] YSGRGK(Ac)GGK(Ac)GLGK(Ac)GGAK(Ac)RHRK (Biotin) peptide was used in the assays. Buffer conditions used in all experiments were 25 mM HEPES, pH 7.4, 100 mM NaCl, 0.1% BSA, supplemented with 0.05% CHAPS.

In another assay the test system is HL-60. The experiment in a line: Inhibition of proliferation (Alamar Blue cell viability), HL-60. It counts as cell-based. The conditions noted are these: Homo sapiens; AML, HL-60, 72 h; read-out: Inhibition of cell growth, IC50. The protocol: (§2) A semi-log dilution was performed in 100% DMSO. Cells were cultured in DMEM containing 10% FCS and Penicillin/Streptomycin. For the assays, cells were seeded in 150 μL medium on a 96-well cell culture plate and incubated at 37° C. overnight before the compound was added. […] A day after cell seeding, 10 μL of prediluted compound was added to the cells (1:16 dilution). Treatment of cells with 0.1% DMSO and Staurosporine (1.0E-05 M) served as High control (100% viability) and Low control (0% viability), respectively
(§3) A day after cell seeding, the test compound was added to the medium to reach the final concentration and incubated for 72 h at 37° C. at 5% CO2 in air dependent on the medium. Subsequently 15 μL Alamar Blue reagent was added and fluorescence at 590 nm was measured after 3-5 h incubation at 37° C., 5% CO2 using a fluorometer.
(§4) Raw data were converted into percent cell viability relative to the high control (0.1% DMSO) and low control (1E-05M Staurosporine), which were set to 100% and 0%, respectively.
(In general: The colour change of resazurin is a common sign of viable cells or microbes.)

Another assay has as its system KG1. The experiment in a line: Inhibition of proliferation (Alamar Blue cell viability), KG1. The class given is cell-based. The conditions noted are these: Homo sapiens, KG-1; AML, KG1, 72 h; read-out: Inhibition of cell growth, IC50. The procedure: as §2, §3, §4
In the next assay the test system is KMS-12-BM. The experiment in a line: Inhibition of proliferation (Alamar Blue cell viability), KMS-12-BM. It counts as cell-based. The note with it: Homo sapiens, Multiple myeloma, 72 h, read-out: Inhibition of cell growth, IC50. The protocol: as §2, §3, §4
The next assay concerns LP-1. The experiment in a line: Inhibition of proliferation (Alamar Blue cell viability), LP-1. It counts as cell-based. The note with it: Homo sapiens; Multiple myeloma, LP-1, 72 h; read-out: Inhibition of cell growth, IC50. The protocol: as §2, §3, §4
A further assay concerns OPM-2. The experiment in a line: Inhibition of proliferation (Alamar Blue cell viability), OPM-2. It counts as cell-based. The conditions noted are these: Homo sapiens; Multiple myeloma, OPM-2, 72 h; read-out: Inhibition of cell growth, IC50. The procedure:
as §2, §3, §4

Another assay concerns CCL2. The experiment in a line: Production of the chemokine CCL2 by cultured human astrocytes (CCL2 mRNA). The note with it: 250 nM, 24 h. The class given is cell-based. The protocol: CCL2 mRNA content of control astrocytes, astrocytes incubated with 10 ug/ml Tumor Necrosis Factor alpha (TNFalpha) and 10 ug/ml Interferon alpha (IFNalpha) (T/I), astrocytes treated with 250 nM of “Compound 38” (referred to as “C4” in FIG. 2) and astrocytes which are pretreated with “Compound 38” (C4) for 1 hour before stimulation with T/I. Incubation period 24 h. Details on astrocyte culture and quantification of CCL2 mRNA are provided in Mizee et al. Acta Neuropathol (2014) 128:691-703. […] Co-addition of 250 nM of “Compound 38” decreased CCL2 production by 80% both in the absence and presence of TNFalpha/Interferon as shown in FIG. 2.

Setting [2] is: AlphaScreen, acetylated histone peptide, read-out: Potency as inhibitor of BRD4, IC-50.

Read-outs that look alike come from different tables or passages of the source.

One may read the inhibition as the percentage by which the read-out fell short of the control. On to `Cc1sc2c(c1C)C(c1ccc(Cl)cc1)=N[C@@H](CC(=O)OC(C)(C)C)c1nnc(C)n1-2` [(+)JQ1, reference compound], for which the inhibition at 0.6 µM in [1] was around 30%. The “Reduction of collagen1A1 production” value in the assay with collagen1A1 is reported as “reduced to an equal extent”. For the same molecule, the “Reduction of alphaActin1 production” value with alphaActin1 was “reduced to an equal extent”.
As to `Cc1sc2c(c1C)C(c1ccc(Cl)cc1)=NN(C)c1nnc(C)n1-2` [Compound 38, 4-(4-chlorophenyl)-2,3,6,9-tetramethyl-6H-thieno[2,3-e][1,2,4]triazolo[3,4-c][1,2,4]triazepine], the IC50 on BRD4 is 150 nM; in the assay on HL-60, 810 nM; with KG1 it was 810 nM; in the assay on KMS-12-BM, 270 nM; in the assay with LP-1, 360 nM; in the assay with OPM-2 it was 260 nM. Moreover, the “Decrease of CCL2 production” value with CCL2 (absence of TNFalpha/Interferon) and in the assay with CCL2 (presence of TNFalpha/Interferon) was 80% each time.
On to `CCOC(=O)CN1N=C(c2ccc(Cl)cc2)c2c(sc(C)c2C)-n2c(C)nnc21` [Compound 41, Ethyl 2-(4-(4-chlorophenyl)-2,3,9-trimethyl-6H-thieno[2,3-e][1,2,4]triazolo[3,4-c][1,2,4]triazepin-6-yl)acetate], for which the IC50 at BRD4 (setting [2]) is 11 nM; in assay [1] (24 h at 37° C., read-out: Inhibition of production of IL-1beta, IL6 and TNF-alpha, IC50s) it was 6 to 60 nM. Besides, the inhibition at 0.6 µM in assay [1] was above 80%. Besides, in the assay with collagen1A1, the “Reduction of collagen1A1 production” value is given as “reduced to an equal extent”. For the same molecule, the “Reduction of alphaActin1 production” value in the assay on alphaActin1 is “reduced to an equal extent”.
`Cc1sc2c(c1C)C(c1ccc(Cl)cc1)=NN(CC(=O)O)c1nnc(C)n1-2.Cl` [Compound 42, 2-(4-(4-chlorophenyl)-2,3,9-trimethyl-6H-thieno[2,3-e][1,2,4]triazolo[3,4-c][1,2,4]triazepin-6-yl)acetic acid hydrochloride]: the IC50 at BRD4 (setting [2]) came to 290 nM. In addition, in the assay with collagen1A1, the “Reduction of collagen1A1 production” value was “less inhibition”. For the same molecule, the “Reduction of alphaActin1 production” value in the assay with alphaActin1 is recorded as “less inhibition”.
Regarding `Cc1sc2c(c1C)C(c1ccc(Cl)cc1)=NN(CC(=O)OC(C)(C)C)c1nnc(C)n1-2` [Compound 43, tert-butyl 2-(4-(4-chlorophenyl)-2,3,9-trimethyl-6H-thieno[2,3-e][1,2,4]triazolo[3,4-c][1,2,4]triazepin-6-yl)acetate], the IC50 at BRD4 (setting [2]) worked out at 100 nM. For the same molecule, in the assay on collagen1A1, the “Reduction of collagen1A1 production” value is “less inhibition”. The “Reduction of alphaActin1 production” value in the assay with alphaActin1 is listed as “less inhibition”.

Values taken from patent US11708374B2, “Preparation of condensed triazepine derivatives and their use as BET inhibitors” (DYBLY AG, priority 2018, dated 2023).
